Test results published in PubChem BioAssay AID200 (DTP/NCI, 2004).
Where “and” joins values, the source holds several entries; their conditions need not be identical. Equal entries are not always repeated. Inconclusive results and toxic doses are left out. Where a SMILES comes first, the peptide text is derived from it. [ ]: non-standard residue; d: D form. The star is where a group is joined. Cbz = O=C(OCc1ccccc1)*; Nva = CCC[CH](N)C(=O)O

Tested on: B6C3F1 mice, B16 melanoma ip, median survival T/C
Assay: NCI In Vivo Anticancer Drug Screen. Data for tumor model B16 Melanoma (intraperitoneal) in B6C3F1 mice
Conditions: endpoint: median survival time, higher = longer survival
Outline: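 Antitumor effect was judged in mice with transplanted tumors by dividing the treated group's survival measure by that of vehicle controls.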

[1] = dose: 25.0 mg/kg/injection, schedule: Q01DX009 (ip), vehicle: saline

CCCC(NC(=O)OCc1ccccc1)C(=O)NC(C(=O)O)C(C)C (stereo not drawn) (Cbz-[Nva]-Val-OH; configuration not given here)
T/C (dose: 100.0 mg/kg/injection, schedule: Q01DX009 (ip), vehicle: Klucel (hydroxypropylcellulose) (HPC)): 102 % of control | T/C (dose: 200.0 mg/kg/injection, schedule: Q01DX009 (ip), vehicle: Klucel (hydroxypropylcellulose) (HPC)): 109 % of control | T/C (dose: 400.0 mg/kg/injection, schedule: Q01DX009 (ip), vehicle: Klucel (hydroxypropylcellulose) (HPC)): 99 % of control

O=C(C1CO1)C(Cl)(Cl)Cl (stereo not drawn)
T/C (dose: 12.0 mg/kg/injection, schedule: Q01DX009 (ip), vehicle: saline): 92 % of control | T/C [1]: 106 % of control

O=C(Nc1cccnc1)c1ccc([N+](=O)[O-])s1
T/C (dose: 1.13 mg/kg/injection, schedule: Q01DX009 (ip), vehicle: saline): 96 % of control | T/C (dose: 1.88 mg/kg/injection, schedule: Q01DX009 (ip), vehicle: saline): 92 % of control | T/C (dose: 3.13 mg/kg/injection, schedule: Q01DX009 (ip), vehicle: saline): 97 % of control | T/C (dose: 5.21 mg/kg/injection, schedule: Q01DX009 (ip), vehicle: saline): 94 % of control | T/C (dose: 6.25 mg/kg/injection, schedule: Q01DX009 (ip), vehicle: saline): 103 % of control | T/C (dose: 8.69 mg/kg/injection, schedule: Q01DX009 (ip), vehicle: saline): 89 % of control | T/C (dose: 12.5 mg/kg/injection, schedule: Q01DX009 (ip), vehicle: saline): 97 % of control | T/C [1]: 87 % of control and 99 % of control

Cc1c2ccc3ccccc3c2c[n+]2ccccc12
T/C (dose: 1.25 mg/kg/injection, schedule: Q01DX009 (ip), vehicle: Klucel (hydroxypropylcellulose) (HPC)): 104 % of control | T/C (dose: 2.5 mg/kg/injection, schedule: Q01DX009 (ip), vehicle: Klucel (hydroxypropylcellulose) (HPC)): 100 % of control | T/C (dose: 5.0 mg/kg/injection, schedule: Q01DX009 (ip), vehicle: Klucel (hydroxypropylcellulose) (HPC)): 112 % of control | T/C (dose: 10.0 mg/kg/injection, schedule: Q01DX009 (ip), vehicle: Klucel (hydroxypropylcellulose) (HPC)): 96 % of control | T/C (dose: 20.0 mg/kg/injection, schedule: Q01DX009 (ip), vehicle: Klucel (hydroxypropylcellulose) (HPC)): 100 % of control

Cc1cc(Nc2ccc3c(c2)OCO3)c2cc3c(cc2n1)OCO3
T/C (dose: 25.0 mg/kg/injection, schedule: Q01DX009 (ip), vehicle: Klucel (hydroxypropylcellulose) (HPC)): 105 % of control | T/C (dose: 50.0 mg/kg/injection, schedule: Q01DX009 (ip), vehicle: Klucel (hydroxypropylcellulose) (HPC)): 101 % of control

OC(c1ccccc1)C(O)C(c1ccccc1)N1CCCCC1 (stereo not drawn)
T/C (dose: 100.0 mg/kg/injection, schedule: Q01DX009 (ip), vehicle: saline with Tween-80): 100 % of control | T/C (dose: 200.0 mg/kg/injection, schedule: Q01DX009 (ip), vehicle: saline with Tween-80): 102 % of control | T/C (dose: 400.0 mg/kg/injection, schedule: Q01DX009 (ip), vehicle: saline with Tween-80): 111 % of control

COC(=O)C12OCC34C(CC5C(C)=CC(=O)C(O)C5(C)C3C(O)C1O)OC(=O)C(OC(=O)CC(C)C)C24 (stereo not drawn)
T/C (dose: 0.25 mg/kg/injection, schedule: Q01DX009 (ip), vehicle: saline + alcohol): 164 % of control | T/C (dose: 0.5 mg/kg/injection, schedule: Q01DX009 (ip), vehicle: saline + alcohol): 180 % of control | T/C (dose: 1.0 mg/kg/injection, schedule: Q01DX009 (ip), vehicle: saline + alcohol): 164 % of control | T/C (dose: 2.0 mg/kg/injection, schedule: Q01DX009 (ip), vehicle: saline + alcohol): 159 % of control

C1CN(P2(N3CC3)=NP(N3CC3)(N3CC3)=NP(N3CC3)(N3CC3)=N2)CCO1 (stereo not drawn)
T/C (dose: 1.0 mg/kg/injection, schedule: Q01DX009 (ip), vehicle: saline): 87 % of control and 96 % of control | T/C (dose: 1.0 mg/kg/injection, schedule: Q02DX009 (ip), vehicle: saline): 88 % of control and 106 % of control | T/C (dose: 2.0 mg/kg/injection, schedule: Q01DX009 (ip), vehicle: saline): 87 % of control and 105 % of control | T/C (dose: 2.0 mg/kg/injection, schedule: Q02DX009 (ip), vehicle: saline): 114 % of control and 92 % of control | T/C (dose: 4.0 mg/kg/injection, schedule: Q01DX009 (ip), vehicle: saline): 101 % of control | T/C (dose: 4.0 mg/kg/injection, schedule: Q02DX009 (ip), vehicle: saline): 103 % of control | T/C (dose: 8.0 mg/kg/injection, schedule: Q01DX009 (ip), vehicle: saline): 110 % of control | T/C (dose: 8.0 mg/kg/injection, schedule: Q02DX009 (ip), vehicle: saline): 109 % of control and 121 % of control | T/C (dose: 16.0 mg/kg/injection, schedule: Q01DX009 (ip), vehicle: saline): 179 % of control | T/C (dose: 16.0 mg/kg/injection, schedule: Q02DX009 (ip), vehicle: saline): 169 % of control | T/C (dose: 32.0 mg/kg/injection, schedule: Q01DX009 (ip), vehicle: saline): 182 % of control and 205 % of control
